The text below walks through data of patent US10071990B2, “Site-specific orthogonal labeling of the carboxy terminus of α-tubulin in live cells” (The Research Foundation for The State University of New York, priority 2013, dated 2018).

Where two headings read alike, the source gives them in different places. A value given as a limit tells only on which side of the number the result lay.

A short description of data set [1]: Absorption and fluorescence spectra and quantum yield. To be noted: in methanol at 25° C. Format: physicochemical. The procedure:
To test this hypothesis, the absorption and fluorescence spectra of coumarin hydrazine and the salicylaldehyde hydrazone of coumarin hydrazine were measured, which serves as a model compound for the protein-bound hydrazone. Hydrazone formation causes a shift in both the absorption and emission maxima of coumarin hydrazine and a significant increase in quantum yield (Table 2). Thus, as a result of the difference in the spectroscopic window and the quantum yields of coumarin hydrazine and its salicylaldehyde hydrazone, fluorescence from unreacted coumarin hydrazine can be averted.

The target in another data set is T1, tubulin tyrosine ligase (Homo sapiens, UniProt Q8NG68).
T1 construct: made in house; host or cells: Escherichia coli BL21
T1 sequence (Q8NG68 1-377): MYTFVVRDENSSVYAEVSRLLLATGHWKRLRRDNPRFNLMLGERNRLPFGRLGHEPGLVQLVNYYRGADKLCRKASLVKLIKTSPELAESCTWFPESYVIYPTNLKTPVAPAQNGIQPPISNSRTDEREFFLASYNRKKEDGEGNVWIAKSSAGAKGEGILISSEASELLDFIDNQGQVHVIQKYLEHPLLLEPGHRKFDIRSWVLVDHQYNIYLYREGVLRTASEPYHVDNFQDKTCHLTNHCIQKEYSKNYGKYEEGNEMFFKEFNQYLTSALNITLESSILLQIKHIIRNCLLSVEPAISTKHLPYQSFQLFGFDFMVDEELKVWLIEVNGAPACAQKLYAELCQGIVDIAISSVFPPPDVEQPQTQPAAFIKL
Nature of the data set: Inhibition of [3H]-L-tyrosine incorporation into tubulin by TTL. Format: biochemical. How it is done:
Tubulin Tyrosine Ligase. An initial supply of TTL was a gift of Prof. Dr. Jürgen Wehland and Dr. Christian Erck (Gesellschaft für Biotechnologische Forschung, Germany) and was stored at −80° C. Human TTL was prepared using expression vector p Receiver 05x (Genecopoeia, Md.), transformed into the Escherichia coli expression strain BL21.
[3H]-Tyr Incorporation Assay. TTL was thawed and diluted to 1 mg mL^−1 immediately before use. Detyrosinated tubulin (10 μM tubulin) in TTL buffer was combined with […] μL^−1 [3H-Tyr], 0.1 μg μL^−1 TTL, and various concentrations of inhibitor. The mixture was allowed to react for 30 min at 37° C. A 35 μL aliquot of the sample was placed onto DEAE chromatography paper (Whatman) and allowed to dry for 30 min. The protein was fixed using 200 μL of 10% acetic acid and allowed to dry for 10 min. Excess [3H-Tyr] was removed by 2 washes with 3.5 mL of 100% ethanol. The paper was allowed to dry for 30 min and then was combined with 10 mL of Scintiverse (BD) scintillation fluid. The amount of [3H]-tyrosine on each filter was determined using a β-counter.

For data set [2] the following is noted: from reference 34; cited from earlier work.
Data set [3] deals with PC3 cells. Nature of the data set: SRB cytotoxicity of amino acid and fluorophore on live cells. Format: cell-based. To be noted: 24 hour period. How it is done:
PC3 cells were grown in medium supplemented with unnatural amino acid or vehicle for 24 h. Cells were then treated with fluorophore or vehicle for 24 h, following which an SRB assay was performed to assess the cytotoxicity of the molecules.
FIGS. 12A-12C show graphs of cytotoxicity of amino acid and fluorophore on live cells. The labeling technique is not detrimental to PC3 cell survival. PC3 cells were grown in medium supplemented with unnatural amino acid or vehicle (2% v/v, 10 mM phosphate buffer, pH 7) for 24 h. Cells were then treated with fluorophore or vehicle (1% v/v DMSO) for 24 h. Following which SRB assay was performed to assess the cytotoxicity of the molecules.

Data set [4] relates to PC3 cells. Nature of the data set: Effect on cell morphology and microtubule network (immunofluorescence). The data set is classed as cell-based. Particulars: 24 hour treatment followed by treatment with a fluorophore. How it is done:
PC3 cells were grown in F12K medium supplemented with unnatural amino acid for 24 h. Cells were washed and then treated with fluorophores for 24 h before fixing with methanol. Cells were then processed for immunofluorescence using tubulin antibody (red) and DAPI (blue).
PC3 cells were grown in F12K medium supplemented with unnatural amino acid for 24 h. Cells were washed and treated with a fluorophore for 24 h before fixing with methanol. Cells were then processed for immunofluorescence using tubulin antibody (red) and DAPI (blue).

A further data set has as its system cells. Nature of the data set: SRB assay after 96 h treatment with amino acid. Format: cell-based. Particulars: for IC50: cells treated 96 h, read-out: IC 50 (toxicity).
Data set [5] in a line: Kinetics of hydrazone formation by absorption difference spectroscopy. Particulars: reaction with 3-formyltyrosine, PME buffer pH 6.9, 25° C. An excerpt: Removal and replacement of the C-terminal tyrosine of α-tubulin can be assessed by Western blot. […] The presence of a carbonyl in α-tubulin was confirmed reacting the protein with dinitrophenylhydrazine (DNPH) followed L-tyrosine or 3-formyltyrosine as described under Methods and then subjected to SDS-PAGE. Top: Western blot with tyrosinated α-tubulin antibody (Sigma-Aldrich TUB-1A2). Bottom: Coomassie stain. Lane 1: Tubulin. Lane 2: Tubulin treated with CPA. Lane 3: CPA-treated tubulin retyrosinated with tyrosine. Lane 4: CPA-treated tubulin retyrosinated with 3-formyltyrosine. The mass of protein loaded each well was 0.66 μg for the Western blot and 10 μg for the protein stain. Hydrazone Formation: Effect of the Structure of the Nucleophile. Reactions of aldehydes and ketones with hydrazines, hydroxylamines, and amines have been extensively studied (33). The rate vs pH curve is bellshaped; the maximum reaction rate is around the pKa of the hydrazine. […]
Kinetic Measurements. Kinetics of hydrazone formation were measured using absorption difference spectroscopy. […] The change in absorbance for one wavelength was selected from the spectral data, and these values were plotted as a function of time. The data were analyzed as a single pseudo-first-order reaction and were fit to the appropriate equation using SigmaPlot 10.0.

Setting [6] is: inhibition of tubulin tyrosine ligase, 10 μM detyrosinated tubulin, 30 min at 37° C.

As for `Cc1cc(=O)oc2cc(NN=Cc3ccccc3O)ccc12`, in data set [1], the Abs max amounted to 380 nm, the Em max is given as 459 nm and the “φ (quantum yield)” value was 0.131.

Take `Nc1cc(C[C@H](N)C(=O)O)ccc1O` [3-Aminotyrosine]: the Ki at tubulin tyrosine ligase (setting [6]) was 200 µM.

In the case of `NNc1ccccc1` [phenyl hydrazine], the pKa in data set [2] is 5.3.

On to `[N-]=[N+]=Nc1cc(C[C@H](N)C(=O)O)ccc1O` [3-Azidotyrosine], for which the affinity at tubulin tyrosine ligase, expressed as Ki, was 200 µM.

Regarding `CC(=O)c1cc(C[C@H](N)C(=O)O)ccc1O` [AcY, 3-acetyltyrosine], the “cytotoxicity compared with 3fY” value in the data set with PC3 cells [3] is given as “less cytotoxic over 24 hour period than 3fY”. For the same compound, in the data set on PC3 cells [4], the “effect on microtubule network and cell morphology” value is listed as “does not alter the microtubule network or cell morphology”. The IC50 with cells was more than 5000 µM.

`N[C@@H](Cc1ccc(O)cc1)C(=O)O` [Tyrosine] yielded a Ki on tubulin tyrosine ligase (setting [6]) of 25 µM.

For `Nc1ccc(C[C@H](N)C(=O)O)cc1` [4-Aminophenylalanine], the Ki at tubulin tyrosine ligase was more than 4000 µM.

`Cc1cc(=O)oc2cc(NN)ccc12` [coumarin hydrazine, 7-hydrazino-4-methyl coumarin]: in data set [1], the Abs max is 360 nm, the Em max stood at 432 nm and the “φ (quantum yield)” value came to 0.046. Besides, the “time to complete hydrazone formation” value in data set [5] was not above 120 min. The “second-order rate constant of hydrazone formation” value in data set [5] (no catalyst) was found to be 0.883 M⁻¹ s⁻¹.

On to `NNC(=O)[C@@H](N)Cc1ccc(O)cc1` [Yzide, tyrosine hydrazide, reference compound], for which, in the data set on PC3 cells [4], the “effect on microtubule network and cell morphology” value is “does not alter the microtubule network or cell morphology”. For the same compound, the “toxicity” value with cells (5 mM ligand, 96 h) is on record as “No toxicity observed”. Moreover, the IC50 in the data set on cells was more than 5000 µM.

On to `N[C@@H](Cc1ccc(O)c(C=O)c1)C(=O)O` [3-Formyltyrosine], for which the “effect on microtubule network and cell morphology” value in the data set with PC3 cells [4] is listed as “does not alter the microtubule network or cell morphology”. Besides, on tubulin tyrosine ligase, affinity was put at a Ki of 300 µM. The IC50 with cells was more than 25 µM.

With Phenyl hydrazide, the pKa in data set [2] is 3.1.
